For test [1], the system named is Mycobacterium tuberculosis. As to the kind of experiment: Antituberculosis activity against Mycobacterium tuberculosis H37Rv assessed as minimum anaerobicidal cancentration after 3 weeks. The test is classed as functional.
Test [2] relates to Mycobacterium tuberculosis. As to the kind of experiment: Antituberculosis activity against Mycobacterium tuberculosis H37Rv after 2 weeks. The test is classed as functional. Particulars: 336 h.

Values after ≈ are worked out from the molar mass of the structure shown.

One may read the MIC as the lowest concentration found to suppress growth. A low value points to inhibition by little substance. With `O=[N+]([O-])c1cn2c(n1)OC[C@@H](OCc1ccc(OC(F)(F)F)cc1)C2` [PRETOMANID], the MAC in test [1] was 8 µM. Further, the minimum inhibitory concentration (MIC) in test [2] is 0.8 µM (≈ 0.287 µg/mL).

`O=[N+]([O-])c1nc2n(c1Br)C[C@H](OCc1ccc(OC(F)(F)F)cc1)CO2`: the MAC in test [1] worked out at 32.5 µM. The lowest concentration to inhibit growth in test [2] (MIC) was 25 µM (≈ 11 µg/mL). For `O=[N+]([O-])c1nc2n(c1Cl)C[C@H](OCc1ccc(OC(F)(F)F)cc1)CO2`, the minimal inhibitory concentration (MIC) in test [2] is 25 µM (≈ 9.84 µg/mL). Regarding `Nc1c([N+](=O)[O-])nc2n1C[C@H](OCc1ccc(OC(F)(F)F)cc1)CO2`, in test [1], the MAC is greater than 100 µM. This compound also displayed a minimum inhibitory concentration (MIC) in test [2] greater than 100 µM. Take `N#Cc1c([N+](=O)[O-])nc2n1C[C@H](OCc1ccc(OC(F)(F)F)cc1)CO2`: in test [2], the minimum inhibitory concentration (MIC) is greater than 100 µM.
